Format in all cases: cell-based
In assay [1] the target is TRPML1 (Homo sapiens, UniProt Q9GZU1). The assay can be described thus: Fluorescent TRPML1 assay (Fluo4-AM calcium fluorescence in doxycycline-induced HEK-293 Trex cells). In outline:
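EC50 values come from non-linear regression of percent activity, normalized to on-plate positive and negative controls, with fluorescence read at 480 nm excitation and 540 nm emission. Fluo4-AM-loaded (1 µM) doxycycline-induced HEK-293 Trex cells expressing mutated human TRPML1 were exposed in 10 mM calcium Ringer's to 6 nM–20 µM compound, in triplicate.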

Assay [2] addresses T1, TRPML2 (Homo sapiens, UniProt Q8IZK6).
T1 construct: expressed in transfected cells
T1 sequence (Q8IZK6 1-566): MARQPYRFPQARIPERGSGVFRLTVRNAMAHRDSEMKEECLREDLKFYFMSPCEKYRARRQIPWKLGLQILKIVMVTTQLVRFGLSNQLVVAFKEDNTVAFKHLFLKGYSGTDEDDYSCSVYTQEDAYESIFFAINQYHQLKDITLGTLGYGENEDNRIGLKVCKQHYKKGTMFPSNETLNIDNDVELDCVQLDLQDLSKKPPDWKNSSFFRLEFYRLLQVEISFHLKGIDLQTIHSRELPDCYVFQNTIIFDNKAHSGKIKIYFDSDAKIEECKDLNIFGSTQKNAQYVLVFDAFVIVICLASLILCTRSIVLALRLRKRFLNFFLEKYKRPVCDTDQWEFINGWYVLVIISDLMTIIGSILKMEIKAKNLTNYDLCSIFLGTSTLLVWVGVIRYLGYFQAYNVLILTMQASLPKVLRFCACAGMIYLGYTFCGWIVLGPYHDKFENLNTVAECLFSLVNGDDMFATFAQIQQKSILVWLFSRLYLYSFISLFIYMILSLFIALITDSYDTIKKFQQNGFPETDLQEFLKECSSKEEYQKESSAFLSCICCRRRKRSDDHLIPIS
In words: Fluorescent TRPML2 assay (performed as for TRPML1, substituting the TRPML2 subtype). Here is the method: HEK-293 Trex cells were stably transfected with a construct consisting of the human coding sequence for TRPML1 cloned into the […] plasmid pCDNA5 T/O. Mutations were introduced into the TRPML1 sequence to facilitate expression on the cell surface (Silvia Vergarajauregui, Rosa Puertollano, Traffic. 2006 March; 7(3): 337-353). Briefly, the cells are cultured in 150 mm round tissue culture dishes containing 20 mL of media. The day before the assay the cells are rinsed with DPBS-Ca—Mg and then treated briefly with Trypsin-EDTA. The Trypsin-EDTA is diluted with growth media, and cells are counted. 38×10^6 cells are re-plated into 150 mm round tissue culture dishes in media containing 0.5 ug/mL doxycycline to induce expression of hTRPML1.
The day of the experiment cells are lifted from the plates as above and collected by centrifugation. The cells are then suspended in dye loading buffer consisting of Ringer's solution supplemented with 0.1% Pluronic Acid and 1 micromolar Fluo4-AM dye. Cells are loaded for ˜60 minutes in the dark with occasional mixing. The cells are collected by centrifugation, the loading media aspirated, and the cells resuspended in 25 mL Ringer's solution and incubated ˜60 minutes in the dark. The cells are again collected by centrifugation, rinsed in Ringer's Solution and resuspended to […] in modified Ringer's solution containing 10 mM calcium.
Compounds are dissolved to a concentration of 10 millimolar with DMSO. Compound plates are created by dispensing compounds into 384 well black wall clear bottom plates (Greiner 781091). Positive and negative controls are included on each plate. Typically, different amounts of each compound are tested ranging from 100 nanoMoles (20 micromolar final concentration) decreasing in half-log steps to 31 picoMoles (6 nanomolar final concentration). Each concentration is typically tested in triplicate.
50 microliters of dye-loaded cells are dispensed into each well of the compound assay plate created above. The fluorescence in each well is then determined with an excitation wavelength of 480 nm and an emission wavelength of 540 nm using either a Molecular Devices SpectraMax multimode plate reader or a Hamamatsu FDSS/uCell plate imager.
The resulting fluorescence for each well is exported as an ascii file and loaded into our LIMS for analysis. The percent activity of each compound at each concentration is determined by comparison to the positive and negative control wells included in each plate.
TRPML2 and TRPML3 Assays Assays for TRPML2 and TRPML3 were performed as above for TRPML1, by substituting the appropriate TRPML2 or TRPML3 subtype for the TRPML1.
EC50 values were calculated using a non-linear regression of Prism. In the table, “A” indicates an EC50 of less than 100 nM, “B” indicates an EC50 range from 100 nM to 500 nM; “C” indicates an EC50 range from 500 nM to 2 μM; and “D” indicates an EC50 greater than 2 μM.

Assay [3] addresses T2, TRPML3 (Homo sapiens, UniProt Q8TDD5).
T2 construct: expressed in transfected cells
T2 sequence (Q8TDD5 1-553): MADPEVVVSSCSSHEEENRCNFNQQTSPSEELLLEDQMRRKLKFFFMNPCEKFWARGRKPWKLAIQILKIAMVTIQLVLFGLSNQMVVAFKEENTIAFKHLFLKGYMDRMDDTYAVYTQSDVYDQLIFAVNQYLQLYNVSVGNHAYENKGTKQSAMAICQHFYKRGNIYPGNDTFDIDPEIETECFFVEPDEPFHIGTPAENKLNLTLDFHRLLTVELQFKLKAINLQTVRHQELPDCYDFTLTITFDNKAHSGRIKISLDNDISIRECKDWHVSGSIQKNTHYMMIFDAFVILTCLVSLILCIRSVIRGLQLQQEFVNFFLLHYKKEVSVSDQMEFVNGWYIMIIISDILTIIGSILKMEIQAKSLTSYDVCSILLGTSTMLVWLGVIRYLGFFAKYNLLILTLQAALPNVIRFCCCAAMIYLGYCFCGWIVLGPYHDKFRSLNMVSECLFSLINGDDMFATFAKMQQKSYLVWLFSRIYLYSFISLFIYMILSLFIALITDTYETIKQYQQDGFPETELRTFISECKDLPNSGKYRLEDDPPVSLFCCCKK
The assay can be described thus: Fluorescent TRPML3 assay (performed as for TRPML1, substituting the TRPML3 subtype). In outline:
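Compound series (final 6 nM-20 μM, half-log, triplicate) were added to Fluo4-AM-loaded HEK-293 Trex cells in 10 mM calcium Ringer's, expressing the human TRPML subtype after doxycycline 0.5 ug/mL induction. Percent activity versus positive/negative controls from 480/540 nm fluorescence; EC50 by non-linear regression.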

Read-outs that look alike come from different tables or passages of the source.

Sequence of TRPML1 (Q9GZU1 whole entry L15A/L16A/L577A/L578A, form open): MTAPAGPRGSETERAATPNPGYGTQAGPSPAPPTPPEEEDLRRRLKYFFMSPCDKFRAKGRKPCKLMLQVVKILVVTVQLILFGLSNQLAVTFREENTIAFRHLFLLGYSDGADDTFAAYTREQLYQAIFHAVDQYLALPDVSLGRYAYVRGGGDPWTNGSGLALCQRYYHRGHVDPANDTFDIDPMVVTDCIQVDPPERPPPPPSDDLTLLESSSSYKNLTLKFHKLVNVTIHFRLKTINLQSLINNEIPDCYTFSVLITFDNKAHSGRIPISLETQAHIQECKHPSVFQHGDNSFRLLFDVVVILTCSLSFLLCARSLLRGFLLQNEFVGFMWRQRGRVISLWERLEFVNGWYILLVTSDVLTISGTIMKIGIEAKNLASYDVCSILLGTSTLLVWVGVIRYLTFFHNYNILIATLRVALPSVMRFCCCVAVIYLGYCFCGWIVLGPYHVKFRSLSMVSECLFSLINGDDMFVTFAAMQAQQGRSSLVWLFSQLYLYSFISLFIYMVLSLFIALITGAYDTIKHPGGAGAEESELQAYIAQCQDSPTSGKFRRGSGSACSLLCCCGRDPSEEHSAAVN

Regarding `C[C@@H]1CN(c2ncnc3c2c(-c2ccccc2F)cn3-c2cc(C(F)(F)F)ccn2)[C@@H](C)CN1C(=O)OC1(C)CC1` [Compound 652, 1-methylcyclopropyl (2R,5S)-4-(5-(2-fluorophenyl)-7-(4-(trifluoromethyl)pyridin-2-yl)-7H-pyrrolo[2,3-d]pyrimidin-4-yl)-2,5-dimethylpiperazine-1-carboxylate], the values for the EC50 in assay [1], in assay [2] and in assay [3] were below 100 nM, 100 to 500 nM and below 100 nM, respectively.

For the compound `C#Cc1ccnc(-n2cc(C(F)(F)F)c3c(N4C[C@@H](C)N(C(=O)OC(C)(C)C)C[C@@H]4C)ncnc32)c1` [Compound 716, tert-butyl (2R,5S)-4-(7-(4-ethynylpyridin-2-yl)-5-(trifluoromethyl)-7H-pyrrolo[2,3-d]pyrimidin-4-yl)-2,5-dimethylpiperazine-1-carboxylate], the half-maximal effective concentration (EC50) in assay [1] was 100 to 500 nM; in assay [2] it was 500 to 2000 nM; in assay [3] it was 100 to 500 nM.

As to `C[C@H]1CN(C(=O)OC(C)(C)C)CCN1c1ncnc2c1c(N1CCN(C)CC1)cn2-c1cc(C#N)ccn1` [Compound 381, tert-butyl (S)-4-(7-(4-cyanopyridin-2-yl)-5-(4-methylpiperazin-1-yl)-7H-pyrrolo[2,3-d]pyrimidin-4-yl)-3-methylpiperazine-1-carboxylate], the EC50 in assay [1] (fluorescent calcium assay), in assay [2] (fluorescent calcium assay) and in assay [3] (fluorescent calcium assay) was above 2000 nM throughout.

As for `CC(C)(C)OC(=O)N1CCN(c2nccc3c2c(-c2ccccc2F)cn3-c2cncnc2)CC1` [Compound 171, tert-butyl 4-(3-(2-fluorophenyl)-1-(pyrimidin-5-yl)-1H-pyrrolo[3,2-c]pyridin-4-yl)piperazine-1-carboxylate], the EC50 was 500 to 2000 nM in assay [1] (fluorescent calcium assay), above 2000 nM in assay [2] (fluorescent calcium assay) and above 2000 nM in assay [3] (fluorescent calcium assay).

In the case of `C[C@H]1CN(C(=O)OC(C)(C)C)CCN1c1nccc2c1c(-c1ccccc1F)cn2-c1cccc(F)c1` [Compound 703, tert-butyl (S)-4-(3-(2-fluorophenyl)-1-(3-fluorophenyl)-1H-pyrrolo[3,2-c]pyridin-4-yl)-3-methylpiperazine-1-carboxylate], the 50% effective concentration (EC50) in assay [1], in assay [2] and in assay [3] was below 100 nM in each case.

On to `C[C@@H]1CN(c2nccc3c2c(C2CC2)cn3-c2cccc(F)c2)CCN1C(=O)OC(C)(C)C` [Compound 704, tert-butyl (R)-4-(3-cyclopropyl-1-(3-fluorophenyl)-1H-pyrrolo[3,2-c]pyridin-4-yl)-2-methylpiperazine-1-carboxylate], for which the concentration giving a half-maximal response (EC50) in assay [1], in assay [2] and in assay [3] was below 100 nM in each case.

With `C[C@@H]1CN(c2ncnc3c2c(-c2cccnc2)cn3-c2cccc(Cl)c2)[C@@H](C)CN1C(=O)OC(C)(C)C` [Compound 131, tert-butyl (2R,5S)-4-(7-(3-chlorophenyl)-5-(pyridin-3-yl)-7H-pyrrolo[2,3-d]pyrimidin-4-yl)-2,5-dimethylpiperazine-1-carboxylate], the results for the EC50 in assay [1] (fluorescent calcium assay), in assay [2] (fluorescent calcium assay) and in assay [3] (fluorescent calcium assay) were below 100 nM, 100 to 500 nM and below 100 nM, respectively.

For `C[C@H]1CN(C(=O)OC(C)(C)C)CCN1c1ncnc2c1c(-c1cccnc1)cn2-c1cc(F)cc(F)c1` [Compound 213, tert-butyl-(S)-4-(7-(3,5-difluorophenyl)-5-(pyridin-3-yl)-7H-pyrrolo[2,3-d]pyrimidin-4-yl)-3-methylpiperazine-1-carboxylate], the EC50 in assay [1] (fluorescent calcium assay) was in the range of 100 to 500 nM; in assay [2] (fluorescent calcium assay), 500 to 2000 nM; in assay [3] (fluorescent calcium assay) it was 100 to 500 nM.

Consider `CC(C)(C)OC(=O)N1CCN(c2ncnc3c2c(-c2ccccc2F)cn3-c2ncc(C#N)s2)CC1` [Compound 455, tert-butyl 4-(7-(5-cyanothiazol-2-yl)-5-(2-fluorophenyl)-7H-pyrrolo[2,3-d]pyrimidin-4-yl)piperazine-1-carboxylate], for which the EC50 was below 100 nM in assay [1] (fluorescent calcium assay), 100 to 500 nM in assay [2] (fluorescent calcium assay) and below 100 nM in assay [3] (fluorescent calcium assay).

For `Cc1cn(-c2ccccc2)c2ncnc(N3CCN(C(=O)OC(C)(C)C)C[C@@H]3C)c12` [Compound 685, tert-butyl (S)-3-methyl-4-(5-methyl-7-phenyl-7H-pyrrolo[2,3-d]pyrimidin-4-yl)piperazine-1-carboxylate], the half-maximal effective concentration (EC50) in assay [1] is below 100 nM; in assay [2], 500 to 2000 nM; in assay [3], below 100 nM.

As for `C[C@@H]1CN(c2ncnc3c2c(-c2ccccn2)cn3-c2cc(C#N)ccn2)CCN1C(=O)OC(C)(C)C` [Compound 367, tert-butyl (R)-4-(7-(4-cyanopyridin-2-yl)-5-(pyridin-2-yl)-7H-pyrrolo[2,3-d]pyrimidin-4-yl)-2-methylpiperazine-1-carboxylate], the concentration giving a half-maximal response (EC50) in assay [1] (fluorescent calcium assay) is below 100 nM; in assay [2] (fluorescent calcium assay), 100 to 500 nM; in assay [3] (fluorescent calcium assay), below 100 nM.

As to `C[C@@H]1CN(c2ncnc3c2c(C2CCC2)cn3-c2cc(C#N)ccn2)[C@@H](C)CN1C(=O)OC(C)(C)C` [Compound 710, tert-butyl (2R,5S)-4-(7-(4-cyanopyridin-2-yl)-5-cyclobutyl-7H-pyrrolo[2,3-d]pyrimidin-4-yl)-2,5-dimethylpiperazine-1-carboxylate], the figures for the EC50 in assay [1], in assay [2] and in assay [3] were below 100 nM, 100 to 500 nM and below 100 nM, respectively.

For the compound `C[C@H]1CN(C(=O)OC(C)(C)C)CCN1c1ncnc2c1c(-c1ccccn1)cn2-c1cc(C#N)ccn1` [Compound 352, tert-butyl (S)-4-(7-(4-cyanopyridin-2-yl)-5-(pyridin-2-yl)-7H-pyrrolo[2,3-d]pyrimidin-4-yl)-3-methylpiperazine-1-carboxylate], the half-maximal effective concentration (EC50) in assay [1] (fluorescent calcium assay), in assay [2] (fluorescent calcium assay) and in assay [3] (fluorescent calcium assay) was below 100 nM in each case.

With `C[C@@H]1CN(c2ncnc3c2c(-c2ccccc2F)cn3-c2cc(Cl)ccn2)[C@@H](C)CN1C(=O)OC(C)(C)C` [Compound 454, tert-butyl (2R,5S)-4-(7-(4-chloropyridin-2-yl)-5-(2-fluorophenyl)-7H-pyrrolo[2,3-d]pyrimidin-4-yl)-2,5-dimethylpiperazine-1-carboxylate], the EC50 in assay [1] (fluorescent calcium assay), in assay [2] (fluorescent calcium assay) and in assay [3] (fluorescent calcium assay) was below 100 nM each time.

In general, EC50 refers to the midpoint of the concentration-response curve.

The record behind these values is patent US20250136606A1, “MODULATORS OF TRPML, THEIR COMPOSITIONS AND METHODS OF USE” (Caraway Therapeutics, Inc., priority 2021, published 2025).
